Consider 12 compounds from ChEMBL document CHEMBL4715809, “Design, synthesis, and biological activity of 4-(imidazo[1,2-b]pyridazin-3-yl)-1H-pyrazol-1-yl-phenylbenzamide derivatives as BCR-ABL kinase inhibitors” (Bioorg Med Chem Lett, 2016).

The test system of data set [1] is U-937. Description: Antiproliferative activity against human U937 cells assessed as reduction in cell viability after 24 hrs by CCK8 assay. It is filed as functional, cell-based. The conditions noted are these: U-937, 24 h. (Formazan colour is commonly taken as a measure of viable cells.)
For data set [2], the target named is Bcr/Abl fusion protein (Homo sapiens, UniProt P00519). Description: Inhibition of BCR (unknown origin)/recombinant human N-terminal His-tagged ABL1 (27 to end residues) expressed in baculovirus infected Sf9 cells using ABLtide as substrate preincubated for 30 mins followed by substrate addition and measured after 1 hr in presence of ATP by kinase-Glo luminescence assay. For orientation: Kinase-Glo measures the ATP left after a reaction by luminescence.
Chain of Bcr/Abl fusion protein (P00519 whole entry, the tested form may be a part): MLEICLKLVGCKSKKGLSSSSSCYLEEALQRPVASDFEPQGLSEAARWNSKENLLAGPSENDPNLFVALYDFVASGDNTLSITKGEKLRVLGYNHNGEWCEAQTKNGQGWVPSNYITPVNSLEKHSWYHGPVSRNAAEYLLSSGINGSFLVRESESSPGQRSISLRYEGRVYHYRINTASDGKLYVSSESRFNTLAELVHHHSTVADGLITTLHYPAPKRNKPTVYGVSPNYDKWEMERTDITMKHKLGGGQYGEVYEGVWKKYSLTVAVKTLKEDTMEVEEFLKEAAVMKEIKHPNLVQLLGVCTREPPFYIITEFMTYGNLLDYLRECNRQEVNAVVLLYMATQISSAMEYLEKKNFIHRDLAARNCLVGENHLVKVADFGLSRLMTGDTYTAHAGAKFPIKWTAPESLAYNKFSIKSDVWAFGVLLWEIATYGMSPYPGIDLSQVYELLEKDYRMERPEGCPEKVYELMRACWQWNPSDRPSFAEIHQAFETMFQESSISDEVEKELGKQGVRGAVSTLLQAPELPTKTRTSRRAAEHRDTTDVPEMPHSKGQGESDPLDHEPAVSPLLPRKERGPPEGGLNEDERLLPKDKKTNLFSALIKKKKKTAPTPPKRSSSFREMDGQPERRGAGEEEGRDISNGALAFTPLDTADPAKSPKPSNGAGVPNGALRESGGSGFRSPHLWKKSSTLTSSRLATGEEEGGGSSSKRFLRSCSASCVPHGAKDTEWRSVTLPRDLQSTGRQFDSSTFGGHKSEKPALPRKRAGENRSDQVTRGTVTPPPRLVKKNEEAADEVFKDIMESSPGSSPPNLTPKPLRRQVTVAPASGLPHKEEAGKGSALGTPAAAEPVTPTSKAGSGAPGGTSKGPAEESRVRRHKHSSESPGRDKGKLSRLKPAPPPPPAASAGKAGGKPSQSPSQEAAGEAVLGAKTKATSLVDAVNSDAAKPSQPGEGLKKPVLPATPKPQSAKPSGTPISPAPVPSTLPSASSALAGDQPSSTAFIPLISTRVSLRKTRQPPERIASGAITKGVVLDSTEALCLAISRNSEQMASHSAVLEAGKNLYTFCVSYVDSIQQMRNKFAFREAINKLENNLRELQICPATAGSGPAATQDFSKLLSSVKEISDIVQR
Chain of Bcr/Abl fusion protein (P11274 whole entry, further chain, the tested form may be a part): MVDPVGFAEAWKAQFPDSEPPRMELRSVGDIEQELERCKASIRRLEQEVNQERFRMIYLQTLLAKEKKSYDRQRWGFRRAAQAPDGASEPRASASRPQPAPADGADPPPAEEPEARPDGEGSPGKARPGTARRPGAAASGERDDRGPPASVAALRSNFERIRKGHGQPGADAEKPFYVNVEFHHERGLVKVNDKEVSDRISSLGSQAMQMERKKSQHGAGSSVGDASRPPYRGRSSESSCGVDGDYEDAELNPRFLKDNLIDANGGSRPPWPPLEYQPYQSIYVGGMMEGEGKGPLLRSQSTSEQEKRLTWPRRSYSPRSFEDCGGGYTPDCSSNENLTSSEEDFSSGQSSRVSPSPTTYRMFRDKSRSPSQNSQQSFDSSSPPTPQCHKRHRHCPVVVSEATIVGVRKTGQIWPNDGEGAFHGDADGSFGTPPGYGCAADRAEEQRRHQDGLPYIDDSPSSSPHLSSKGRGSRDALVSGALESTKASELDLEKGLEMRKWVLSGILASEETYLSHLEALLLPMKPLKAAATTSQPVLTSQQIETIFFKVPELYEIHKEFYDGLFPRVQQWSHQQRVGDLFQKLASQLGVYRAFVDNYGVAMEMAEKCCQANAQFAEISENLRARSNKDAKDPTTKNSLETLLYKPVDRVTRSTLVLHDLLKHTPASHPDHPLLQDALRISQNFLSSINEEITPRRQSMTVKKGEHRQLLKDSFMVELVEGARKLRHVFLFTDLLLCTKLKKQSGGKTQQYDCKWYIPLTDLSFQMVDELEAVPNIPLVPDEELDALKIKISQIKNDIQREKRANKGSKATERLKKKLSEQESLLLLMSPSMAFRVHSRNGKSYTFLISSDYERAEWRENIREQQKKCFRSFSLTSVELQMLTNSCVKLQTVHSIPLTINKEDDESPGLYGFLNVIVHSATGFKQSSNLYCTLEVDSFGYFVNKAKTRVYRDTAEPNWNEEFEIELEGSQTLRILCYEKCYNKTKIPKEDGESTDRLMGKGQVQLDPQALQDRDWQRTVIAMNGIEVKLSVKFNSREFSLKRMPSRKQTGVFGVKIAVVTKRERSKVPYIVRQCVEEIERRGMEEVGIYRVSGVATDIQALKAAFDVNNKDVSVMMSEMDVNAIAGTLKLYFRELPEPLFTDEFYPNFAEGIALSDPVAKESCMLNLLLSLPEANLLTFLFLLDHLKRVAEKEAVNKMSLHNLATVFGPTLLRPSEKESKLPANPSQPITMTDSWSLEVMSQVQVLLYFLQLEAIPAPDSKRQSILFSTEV

Data set [3] has as its system K562. Description: Antiproliferative activity against human K562 cells assessed as reduction in cell viability after 24 hrs by CCK8 assay. The class given is functional, cell-based. The conditions noted are these: K562, 24 h.
Data set [4] is described as follows: Cytotoxicity against human 293T cells assessed as reduction in cell viability after 24 hrs by CCK8 assay. The following applies: 293T (HEK-293T) cells. It is filed as cell-based.
Data set [5] addresses Bcr/Abl fusion protein (Homo sapiens) (UniProt P00519+P11274). The experiment in a line: Potency index, ratio of staurosporine IC50 to test compound IC50 for inhibition of BCR (unknown origin)/recombinant human N-terminal His-tagged ABL1 (27 to end residues) expressed in baculovirus infected Sf9 cells using ABLtide as substrate preincubated for 30 mins followed by substrate addition and measured after 1 hr in presence of ATP by kinase-Glo luminescence assay. The following applies: time 90.0 min.

Chain of Bcr/Abl fusion protein (Homo sapiens) (P00519 whole entry, looked up, the tested form may be a part): as the sequence (P00519 whole entry, the tested form may be a part) above
Chain of Bcr/Abl fusion protein (Homo sapiens) (P11274 whole entry, looked up, the tested form may be a part): as the sequence (P11274 whole entry, further chain, the tested form may be a part) above

A word on the IC50: it is the concentration at which inhibition is half-maximal. What is called CC50 is the concentration that lowers cell viability or growth by half. `Cc1ccc(NC(=O)c2ccc(CN3CCN(C)CC3)cc2)cc1-n1cc(-c2cnc3cccnn23)cn1`: the figures for the half-maximal inhibitory concentration (IC50) in data set [1], in data set [2] and in data set [3] were 10.8 µM, 0.0261 µM and below 0.002 µM, respectively. Moreover, the CC50 at 24 h in data set [4] worked out at 23.8 µM.
Take `Cc1ccc(NC(=O)c2cccc(C(F)(F)F)c2)cc1-n1cc(-c2cnc3cccnn23)cn1`: the half-inhibitory concentration (IC50) was 13.7 µM in data set [1], 0.0085 µM in data set [2] and below 0.002 µM in data set [3]. Besides, the CC50 at 24 h in data set [4] was found to be 40.3 µM. The Ratio IC50 in data set [5] is 14.3.
Turning to `Cc1ccc(NC(=O)c2ccc(F)cc2)cc1-n1cc(-c2cnc3cccnn23)cn1`, the figures for the IC50 in data set [1], in data set [2] and in data set [3] were above 20 µM, 0.0809 µM and 12.4 µM, respectively. In addition, the CC50 at 24 h in data set [4] is above 80 µM.
For the compound `CCc1ccc(C(=O)Nc2ccc(C)c(-n3cc(-c4cnc5cccnn45)cn3)c2)cc1`, the IC50 in data set [1] was above 20 µM; in data set [2], 0.0194 µM; in data set [3], 7.54 µM. Also, in data set [4], the CC50 at 24 h was above 80 µM.
For `Cc1ccc(NC(=O)c2ccc(CN3CCN(C)CC3)cc2)cc1Nc1nccc(-c2cccnc2)n1` [IMATINIB], the IC50 in data set [1] stood at 12.4 µM; in data set [3] it was 7.38 µM. Besides, the 50% cytotoxic concentration (CC50) at 24 h in data set [4] is 27.5 µM.
On to `Cc1ccc(NC(=O)c2ccc(C(F)(F)F)cc2)cc1-n1cc(-c2cnc3cccnn23)cn1`, for which the IC50 in data set [1] is above 20 µM; in data set [2], 0.0741 µM; in data set [3], 10.5 µM. In addition, the CC50 at 24 h in data set [4] is above 80 µM.
Consider `Cc1ccc(NC(=O)c2ccc(CN3CCOCC3)cc2)cc1-n1cc(-c2cnc3ccnn3c2)cn1`, for which, in data set [2], the concentration for half-maximal inhibition (IC50) is 2.44 µM.
In the case of `Cc1ccc(NC(=O)c2cccc(Cl)c2)cc1-n1cc(-c2cnc3cccnn23)cn1`, the IC50 in data set [1] is above 20 µM; in data set [2], 0.0222 µM; in data set [3] it was 5.08 µM. For the same compound, in data set [4], the cytotoxic concentration (CC50) at 24 h was above 80 µM.
`COc1ccc(C(=O)Nc2ccc(C)c(-n3cc(-c4cnc5ccnn5c4)cn3)c2)cc1`: the IC50 in data set [1] turned out to be 16.3 µM; in data set [2], 0.767 µM; in data set [3], 19.7 µM. In data set [4], the 50% cytotoxic concentration (CC50) at 24 h was above 80 µM.
For `Cc1ccc(NC(=O)c2ccc(CN3CCOCC3)cc2)cc1-n1cc(-c2cnc3cccnn23)cn1` the same measures were 12.4 µM, 0.109 µM, 8.25 µM and 9.04 µM.
As to `Cc1ccc(NC(=O)c2ccc(C(F)(F)F)cc2)cc1-n1cc(-c2cnc3ccnn3c2)cn1`, the IC50 came to 13.1 µM in data set [1], 0.804 µM in data set [2] and 6.93 µM in data set [3]. Besides, the 50% cytotoxic concentration (CC50) at 24 h in data set [4] worked out at 43.2 µM.
For `Cc1ccc(NC(=O)c2ccc(CN3CCCN(C)CC3)cc2)cc1-n1cc(-c2cnc3ccnn3c2)cn1`, the IC50 was determined as 6.83 µM in data set [1], 0.621 µM in data set [2] and 5.88 µM in data set [3]. Also, the half-maximal cytotoxic concentration (CC50) at 24 h in data set [4] is 20.5 µM.
